# Source: patent US20250296963A1, “PEPTIDE HAVING ANTIMICROBIAL ACTIVITY” (priority 2022, published 2025)
# Like-named read-outs stand apart in the source and are kept apart here. Where no end group is shown, it is not given here.
# B1: SEQ ID No 2: Cocoa vicilin-derived antimicrobial peptide of the invention, recombinant or synthetic, mass of 15.3 kDa (peptide)
# chain: YGRKQYERDPRQQYEQCQRRCESEATEEREQEQCEQRCEREYKEQQRQQEEELQRQYQQCQGRCQEQQQGQREQQQCQRKCWEQYKEQERGEHENYHNHK
# modifications: peptide according to an embodiment of the invention
# notes: Cocoa vicilin-derived antimicrobial peptide of the invention, recombinant or synthetic, mass of 15.3 kDa
# B2: SEQ ID No 1: Antimicrobial peptide from the N-terminal region of Theobroma cacao (CCN-51) vicilin protein, 15 kDa spot; natural, recombinant or synthetic (peptide)
# chain: YGRKQYERDPRQQYEQCQRRCESEATEEREQEQCEQRCEREYKEQQRQQEEELQRQYQQCQGRCQEQQQGQREQQQCQRKCWEQYKEQERGEHENYHNHKKN
# modifications: Theobroma cacao
# notes: Antimicrobial peptide from the N-terminal region of Theobroma cacao (CCN-51) vicilin protein, 15 kDa spot; natural, recombinant or synthetic
# Assays:
# Type in all cases: cell-based
# [1] = system: C. albicans; experiment: Peptide stability in bodily fluids (sheep blood, urine), MIC against C. albicans; details: Candida albicans
# Method: In vitro experiments were conducted to test the behavior of the peptides as disclosed herein in blood, against C. albicans. C. albicans isolates from human blood were used (DSMZ 6569). The peptide according to the SEQ ID N° 1 was adjusted to a concentration of 1 mg/ml and mixed with sheep blood in equal parts. This mixture was incubated overnight at 30° C. To remove solid parts of the blood, the mixture was centrifuged and the obtained plasma supernatant was used for MICs.
# In vitro experiments were conducted to test the behavior of the peptides as disclosed herein in urine, against C. albicans. The peptide according to the SEQ ID N° 1 was adjusted to a concentration of 1 mg/ml and mixed with synthetic urine or human urine in equal parts. These mixtures were incubated overnight at 30° C. To remove solid parts of the urine, the mixture was centrifuged and the obtained supernatant was used for MICs.
# [2] = system: Ceratosystis paradoxa; experiment: organism not typed
# Method: (§1) The antimicrobial potential of the peptides described herein was compared with the activity of two other AMPs, TcAMP1 and TcAMP2 as discussed in WO1998027805, and antibiotics or fungicides. Comparative MIC assays were carried out against several bacterial and fungal species (Table 1).
# (§2) Peptides according to SEQ ID N° 1, SEQ ID N° 2, SEQ ID N° 4, SEQ ID N° 6, and SEQ ID N° 7 were serially diluted in order to create a concentration sequence ranging from 0.39 μg/ml to […].
# (§3) Pantoea, Staphylococcus, and Listeria were cultured in Trypticase Soy Broth (TSY) medium consisting of 1.7% casein peptone, 0.3% soy peptone, 0.25% glucose, 0.5% NaCl, 0.25% K2HPO4 and optionally 1.5% agar. Candida cells were cultured in Yeast Extract Peptone Dextrose (YPD) broth medium consisting of 1% yeast extract, 2% peptone, 2% glucose, and optionally 2% agar. Ceratocystis, Botrytis, Leptosphaeria, Mycosphaerella, Sclerotinia, and Verticillium were cultured in Potato Dextrose Agar (PDA) medium consisting of 2.4% Difco pre-mix broth and optionally 1.5% agar.
# (§4) For the MIC assay bacteria and fungi were grown on agar plates with their respective media. Pre-cultures were prepared by inoculating either single bacterial colonies or small pieces of fungi in 5 ml of the respective liquid medium. The optical density (OD) at 600 nm was measured after one to five days and adjusted to an OD600 of 1. This cell suspension was used to prepare 1:500 dilutions, corresponding to approximately 2×10^6 microbial cells per ml.
# (§5) To evaluate MICs, 96-well plates were prepared with the test antimicrobial peptides. Each well contained 100 μl microbial cell culture, 90 μl culture medium, and 10 μl peptide or control at the corresponding dilution. The plates were incubated overnight (ON) at the optimal growth temperature for each tested organism (Table 1). Results were visually evaluated and MICs determined based on growth or no-growth.
# (§6) MIC assays were conducted in at least two independent replicates and with different peptide starting concentrations.
# [3] = system: Verticillium dahliae; experiment: microbe, parasite or virus in culture
# Method: as §1, §2, §3, §4, §5, §6
# [4] = system: Mycosphaerella pinodes; experiment: microbe, parasite or virus in culture
# Method: as §1, §2, §3, §4, §5, §6
# [5] = system: Sclerotinia sclerotiorum; experiment: microbe, parasite or virus in culture
# Method: as §1, §2, §3, §4, §5, §6
# [6] = system: Botrytis cinerea; experiment: microbe, parasite or virus in culture
# Method: as §1, §2, §3, §4, §5, §6
# [7] = system: Candida albicans; experiment: microbe, parasite or virus in culture
# Method: as §1, §2, §3, §4, §5, §6
# [8] = system: Leptosphaeria maculans; experiment: microbe, parasite or virus in culture
# Method: as §1, §2, §3, §4, §5, §6
# [9] = system: Listeria monocytogenes; experiment: microbe, parasite or virus in culture
# Method: as §1, §2, §3, §4, §5, §6
# [10] = system: Staphylococcus aureus MRSA; experiment: microbe, parasite or virus in culture
# Method: as §1, §2, §3, §4, §5, §6
# [11] = system: Listeria monocytogenes; experiment: Cow milk assay, MIC against Listeria monocytogenes
# Method: In vitro experiments were conducted to test the behavior of the peptides as disclosed herein in 3.5% fat cow milk, against Listeria monocytogenes. The peptide according to the SEQ ID N° 1 was adjusted to a concentration of 1 mg/ml and mixed with cow milk in equal parts. This mixture was incubated overnight at 37° C. To remove solid parts of the milk, the mixture was centrifuged and the obtained supernatant was used for MICs.
# [12] = system: Pantoea agglomerans
# Method: as §1, §2, §3, §4, §5, §6
# [13] = system: E. coli; experiment: MIC assay, E. coli
# Method: as §1, §2, §4, §5, §6
# [14] = system: several bacterial and fungal species; experiment: Comparative MIC assays, all tested organisms; details: bacterial species of Table 3, all tested species
# Method: as §1, §2, §3
# For the MIC assay bacteria and fungi were grown on agar plates with their respective media. […] The optical density (OD) at 600 nm was measured after one to five days and adjusted to an OD600 of 1. […]
# To evaluate MICs, 96-well plates were prepared with the test antimicrobial peptides. […] Results were visually evaluated and MICs determined based on growth or no-growth. […]
# [15] = system: Erwinia amylovora; experiment: MIC assay in soil slurry
# Method: In vitro experiments were conducted to test the behavior of the peptides as disclosed herein in soil slurry, against Erwinia amylovora. Soil slurry was generated by mixing 5 g soil in 20 ml water. This mixture was incubated for 1 h at an overhead shaker. The solid parts were removed by centrifugation and the obtained supernatant, referred to as soil slurry, was used for the MIC assay. Equal volumes of the peptide according to SEQ ID N°1 (8 mg/ml) and soil slurry were mixed and incubated overnight at 28° C. The mixture was used for MIC against Erwinia amylovora.
# [16] = Pantoea agglomerans JUB-CC-3253, TSY, 37° C., overnight
# [17] = Listeria monocytogenes DSM 102976, TSY, 37° C., overnight
# [18] = Staphylococcus aureus MRSA DSM 11729, TSY, 37° C., overnight
# [19] = Ceratosystis paradoxa DSMZ 63054, PDA, 18° C., overnight
# [20] = Verticillium dahliae SF 76, PDA, 28° C., overnight
# [21] = Mycosphaerella pinodes DSMZ 62763, PDA, 30° C., overnight
# [22] = Sclerotinia sclerotiorum SF 79, PDA, 18° C., overnight
# [23] = Botrytis cinerea DSMZ 877, PDA, 24° C., overnight
# [24] = Candida albicans DSM 1386, YPD, 30° C., overnight
# [25] = Leptosphaeria maculans SF 70, PDA, 18° C., overnight
molecule,measurement,setting,value
"CC[C@H](C)C[C@H](C)CCCCCCCCC(=O)N[C@H]1C[C@@H](O)[C@@H](NCCN)NC(=O)[C@@H]2[C@@H](O)CCN2C(=O)[C@H]([C@H](O)CCN)NC(=O)[C@H]([C@H](O)[C@@H](O)c2ccc(O)cc2)NC(=O)[C@@H]2C[C@@H](O)CN2C(=O)[C@H]([C@@H](C)O)NC1=O [Caspofungin, caspofungin]",MIC,[1]; read-out: Minimal inhibitory concentration,0.5 µg/mL
Clc1ccccc1C(c1ccccc1)(c1ccccc1)n1ccnc1 [Clotrimazole],MIC,"[2]; Ceratosystis paradoxa DSMZ 63054, PDA, 18° C., overnight, read-out: Minimal inhibitory concentration",0.4 µg/mL
same,MIC,"[3]; Verticillium dahliae SF 76, PDA, 28° C., overnight, read-out: Minimal inhibitory concentration",1.56 µg/mL
same,MIC,"[4]; Didymella pinodes, DSMZ62763, Mycosphaerella pinodes DSMZ 62763, PDA, 30° C., overnight, read-out: Minimal inhibitory concentration",3.1 µg/mL
same,MIC,"[5]; Sclerotinia sclerotiorum SF 79, PDA, 18° C., overnight, read-out: Minimal inhibitory concentration",25 µg/mL
same,MIC,"[6]; DSMZ877, Botrytis cinerea DSMZ 877, PDA, 24° C., overnight, read-out: Minimal inhibitory concentration",6.25 µg/mL
same,MIC,"[7]; DSM1386, Candida albicans DSM 1386, YPD, 30° C., overnight, read-out: Minimal inhibitory concentration",3.1 µg/mL
same,MIC,"[8]; Plenodomus lingam, Leptosphaeria maculans SF 70, PDA, 18° C., overnight, read-out: Minimal inhibitory concentration",0.4 µg/mL
[H]/N=C(/N)N[C@H]1[C@H](O)[C@@H](O)[C@H](O[C@@H]2O[C@@H](C)[C@](O)(C=O)[C@H]2O[C@@H]2O[C@@H](CO)[C@H](O)[C@@H](O)[C@@H]2NC)[C@@H](N/C(N)=N\[H])[C@@H]1O [Streptomycin],MIC,"[9]; DSM102976, Listeria monocytogenes DSM 102976, TSY, 37° C., overnight, read-out: Minimal inhibitory concentration",7.8 µg/mL
same,MIC,"[10]; DSM 11729 / MRSA, Staphylococcus aureus MRSA DSM 11729, TSY, 37° C., overnight, read-out: Minimal inhibitory concentration",> 125 µg/mL
"CN(C)[C@@H]1C(O)=C(C(N)=O)C(=O)[C@@]2(O)C(O)=C3C(=O)c4c(O)cccc4[C@@](C)(O)[C@H]3C[C@@H]12 [Tetracycline, tetracycline]",MIC,"[11]; control, milk-free (and reference drug), read-out: Minimal inhibitory concentration",1.6 µg/mL
Gentamycin,Minimal inhibitory concentration,[12]; [16],1.56 µg/mL
same,Minimal inhibitory concentration,[13],1 µg/mL
same,Minimal inhibitory concentration,[9]; [17],0.4 µg/mL
same,Minimal inhibitory concentration,[10]; [18],0.8 µg/mL
LQRQYQQCQGRCQEQQQGQREQQQCQRKCWEQYKEQERGEHENYHNHKKNRSEEEEGQQR (cysteines drawn unpaired) [SEQ ID No 7],Minimal inhibitory concentration,[2],4.7 µg/mL
same,Minimal inhibitory concentration,[12],9.45 µg/mL
same,Minimal inhibitory concentration,[3],12.7 µg/mL
same,Minimal inhibitory concentration,[4],10.68 µg/mL
same,Minimal inhibitory concentration,[5],23.5 µg/mL
same,Minimal inhibitory concentration,[9],13.6 µg/mL
same,Minimal inhibitory concentration,[10],13.6 µg/mL
same,Minimal inhibitory concentration,[6],12.75 µg/mL
same,Minimal inhibitory concentration,[7],12.75 µg/mL
same,Minimal inhibitory concentration,[8],9.4 µg/mL
YERDPRQQYEQCQRRCESEATEEREQEQCEQRCEREYKEQQRQQEEE (cysteines drawn unpaired) [SEQ ID No 6],Minimal inhibitory concentration,[2],4.8 µg/mL
same,Minimal inhibitory concentration,[12],7.9 µg/mL
same,Minimal inhibitory concentration,[3],14.5 µg/mL
same,Minimal inhibitory concentration,[4],13.12 µg/mL
same,Minimal inhibitory concentration,[5],27.2 µg/mL
same,Minimal inhibitory concentration,[9],3.25 µg/mL
same,Minimal inhibitory concentration,[10],13 µg/mL
same,Minimal inhibitory concentration,[6],14.5 µg/mL
same,Minimal inhibitory concentration,[7],13.1 µg/mL
same,Minimal inhibitory concentration,[8],37.9 µg/mL
B1,efficiency compared with the prior art peptides,[14],more efficient than the prior art peptides
same,Minimal inhibitory concentration,[2]; [19],6.25 µg/mL
same,Minimal inhibitory concentration,[12]; [16],1.9 µg/mL
same,Minimal inhibitory concentration,[13],6.2 µg/mL
same,Minimal inhibitory concentration,[3]; [20],3.1 µg/mL
same,Minimal inhibitory concentration,[4]; [21],4.5 µg/mL
same,Minimal inhibitory concentration,[5]; [22],19.3 µg/mL
same,Minimal inhibitory concentration,[9]; [17],7.1 µg/mL
same,Minimal inhibitory concentration,[10]; [18],7.1 µg/mL
same,Minimal inhibitory concentration,[6]; [23],6.25 µg/mL
same,Minimal inhibitory concentration,[7]; [24],3.1 µg/mL
same,Minimal inhibitory concentration,[8]; [25],6.25 µg/mL
B2,efficiency compared with the prior art peptides,[14],more efficient than the prior art peptides
same,Minimal inhibitory concentration,[2]; [19],5 µg/mL
same,Minimal inhibitory concentration,[12]; [16],1.1 µg/mL
same,Minimal inhibitory concentration,"[11]; control, milk-free (and reference drug)",3.1 µg/mL
same,Minimal inhibitory concentration,"[11]; control, milk-free (and reference drug), listed as SEQ ID N° 1",3.2 µg/mL
same,Minimal inhibitory concentration,"[11]; peptide 1 mg/ml mixed with 3.5% fat cow milk in equal parts, overnight 37° C., supernatant",80 µg/mL
same,Minimal inhibitory concentration,"[1]; control, no bodily fluid (and reference drug)",0.4 µg/mL
same,Minimal inhibitory concentration,"[1]; peptide 1 mg/ml mixed with human urine in equal parts, overnight 30° C., supernatant",5 µg/mL
same,Minimal inhibitory concentration,"[1]; peptide 1 mg/ml mixed with sheep blood in equal parts, overnight 30° C., plasma supernatant",25 µg/mL
same,Minimal inhibitory concentration,"[1]; peptide 1 mg/ml mixed with synthetic urine in equal parts, overnight 30° C., supernatant",2 µg/mL
same,concentration inhibiting bacteria growth (MIC),[15]; control conditions,15 µg/mL
same,concentration inhibiting bacteria growth (MIC),"[15]; peptide (8 mg/ml) mixed with equal volume of soil slurry, overnight 28° C.",25 µg/mL
same,Minimal inhibitory concentration,[13],3.1 µg/mL
same,Minimal inhibitory concentration,[3]; [20],1.6 µg/mL
same,Minimal inhibitory concentration,[4]; [21],1.9 µg/mL
same,Minimal inhibitory concentration,[5]; [22],10.25 µg/mL
same,Minimal inhibitory concentration,[9]; [17],3.1 µg/mL
same,Minimal inhibitory concentration,[10]; [18],3.1 µg/mL
same,Minimal inhibitory concentration,[6]; [23],6.25 µg/mL
same,Minimal inhibitory concentration,[7]; [24],0.4 µg/mL
same,Minimal inhibitory concentration,[8]; [25],3.75 µg/mL
